According to US20240287138A1, “CYCLIC PEPTIDES FOR INHIBITING TNF RECEPTOR 1 ACTIVITY” (Merck Sharp & Dohme LLC, priority 2023, published 2024):
Numbered stars: 1 amine (or outer) side, 2 acyl side, 3 side chain; on linkers, the order of the positions; unused ones are H or OH. Square brackets hold non-standard residues; d marks the D form. Peptide text beside a SMILES is read from it. * marks the point of attachment. Trp(βS-Me,7-OMe) = COc1cccc2c([C@H](C)[C@H](N)C(=O)O)c[nH]c12; X51 = CCC[C@@H](c1c[nH]c2ccccc12)[C@H](N[*:1])C(=O)[*:2]; Phe(4-CH2SO3H) = N[C@@H](Cc1ccc(CS(=O)(=O)O)cc1)C(=O)O; Phe(4-SO2NH2) = N[C@@H](Cc1ccc(S(N)(=O)=O)cc1)C(=O)O; Trp(7-CN) = N#Cc1cccc2c(C[C@H](N)C(=O)O)c[nH]c12; Trp(7-Cl) = N[C@@H](Cc1c[nH]c2c(Cl)cccc12)C(=O)O; Ala(pyrimidin-5-yl) = N[C@@H](Cc1cncnc1)C(=O)O; Phe(4-CONH2) = NC(=O)c1ccc(C[C@H](N)C(=O)O)cc1; Phe(4-COOH) = N[C@@H](Cc1ccc(C(=O)O)cc1)C(=O)O; dPro(4S-NH2) = N[C@@H]1CN[C@@H](C(=O)O)C1; Pip(5R-OH) = O=C(O)[C@@H]1CC[C@@H](O)CN1; X1 = O=C([C@@H]1CC[C@H](N[*:1])C1)[*:2]; Gly(But-3-enyl) = C=CCC[C@H](N)C(=O)O; Pip(4-aza) = O=C(O)[C@@H]1CNCCN1; 4Pal = N[C@@H](Cc1ccncc1)C(=O)O; NMeE = CN[C@@H](CCC(=O)O)C(=O)O; dHyp = O=C(O)[C@H]1C[C@H](O)CN1; αMeS = C[C@](N)(CO)C(=O)O; Carboxymethyl = O=C(O)C*; Nle = CCCC[C@H](N)C(=O)O; Sar = CNCC(=O)O

Key:
[1] = biological target: T1, TNFα-induced NF-κB signal transduction pathway (TNFR1 signaling) in THP-1 cells (Homo sapiens, UniProt P19438); assay: THP-1 Lucia NF-κB reporter cell assay, inhibition of TNFα-induced NF-κB signaling; assay type: cell-based; conditions: THP-1 NF-κB Lucia reporter cells, 10 ng/mL TNFα, 16-18 h, secreted luciferase; read-out: THP-1 IC50
T1 sequence (P19438 30-455): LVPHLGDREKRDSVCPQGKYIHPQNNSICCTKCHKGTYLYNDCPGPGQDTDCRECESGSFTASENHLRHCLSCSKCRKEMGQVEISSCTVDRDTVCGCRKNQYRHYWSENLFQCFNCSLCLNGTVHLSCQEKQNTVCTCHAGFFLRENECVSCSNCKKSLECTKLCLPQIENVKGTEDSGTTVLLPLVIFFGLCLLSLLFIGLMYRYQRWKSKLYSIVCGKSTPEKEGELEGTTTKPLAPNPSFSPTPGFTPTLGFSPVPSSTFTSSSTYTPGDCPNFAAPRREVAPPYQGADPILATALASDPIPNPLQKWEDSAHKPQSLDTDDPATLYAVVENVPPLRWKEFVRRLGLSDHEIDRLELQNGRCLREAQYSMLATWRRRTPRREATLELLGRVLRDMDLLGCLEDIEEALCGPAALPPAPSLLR
In short: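 Inhibition of TNFR1-driven NF-κB activation was measured as luminescence of secreted reporter luciferase following overnight (16-18 h) stimulation with 10 ng/mL TNFα.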

[2] = biological target: T2, human soluble TNFR1 (sTNFR1) (Homo sapiens, UniProt P19438); assay: Human sTNFR1-peptide displacement assay (LanthaScreen Eu TR-FRET binding assay)
T2 construct: made in house; host or cells: Sf21 (baculovirus)
T2 sequence (P19438 with tags, fused parts or gaps): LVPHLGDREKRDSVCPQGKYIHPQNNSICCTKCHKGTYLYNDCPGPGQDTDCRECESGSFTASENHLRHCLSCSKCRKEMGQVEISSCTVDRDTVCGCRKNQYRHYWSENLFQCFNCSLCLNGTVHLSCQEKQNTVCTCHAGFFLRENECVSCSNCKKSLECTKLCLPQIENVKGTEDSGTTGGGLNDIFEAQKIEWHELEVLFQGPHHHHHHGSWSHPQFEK
In short: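 Readout is the 665/615 nm TR-FRET ratio (Eu anti-His donor, streptavidin-Alexa647 acceptor), normalized to DMSO and saturating displacer, fit by Morrison-based five-parameter logistic for Kd^app. His-tagged sTNFR1 (1-211) prebound to 100 nM biotinylated peptide SEQ ID NO.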

SMILES: CCCC[C@@H]1NC(=O)[C@@H]2CC[C@@H](C2)NC(=O)[C@H]([C@@H](CCC)c2c[nH]c3ccccc23)NC(=O)CN(C)C(=O)[C@H](Cc2ccc(C(=O)O)cc2)NC(=O)[C@H](Cc2ccc(C(N)=O)cc2)NC(=O)[C@](C)(CO)NC(=O)[C@H](Cc2c[nH]c3c(Cl)cccc23)NC(=O)[C@H](Cc2ccc(C(=O)O)cc2)NC(=O)[C@H](CC(N)=O)NC(=O)[C@H]2C[C@H](O)CN2C(=O)[C@H](Cc2c[nH]c3ccccc23)NC(=O)[C@@H]2CC[C@@H](O)CN2C(=O)[C@H](Cc2ccncc2)NC1=O [SEQ ID NO. 27] (cyclo([4Pal][Pip(5R-OH)]W[dHyp]N[Phe(4-COOH)][Trp(7-Cl)][αMeS][Phe(4-CONH2)][Phe(4-COOH)][Sar][X51][X1][Nle]))
- IC50 [1]: 0.5 nM
- Kd [2]: 0.1 nM

SMILES: C=CCC[C@@H]1NC(=O)[C@@H]2CC[C@@H](C2)NC(=O)[C@H]([C@@H](C)c2c[nH]c3c(OC)cccc23)NC(=O)CN(C)C(=O)[C@H](Cc2ccc(C(N)=O)cc2)NC(=O)[C@H](Cc2ccc(C(N)=O)cc2)NC(=O)[C@](C)(CO)NC(=O)[C@H](Cc2c[nH]c3c(Cl)cccc23)NC(=O)[C@H](Cc2ccc(C(=O)O)cc2)NC(=O)[C@H](CC(N)=O)NC(=O)[C@H]2C[C@H](O)CN2C(=O)[C@H](Cc2c[nH]c3ccccc23)NC(=O)[C@@H]2CC[C@@H](O)CN2C(=O)[C@H](Cc2ccncc2)NC1=O [SEQ ID NO. 103] (cyclo([4Pal][Pip(5R-OH)]W[dHyp]N[Phe(4-COOH)][Trp(7-Cl)][αMeS][Phe(4-CONH2)][Phe(4-CONH2)][Sar][Trp(βS-Me,7-OMe)][X1][Gly(But-3-enyl)]))
- IC50 [1]: 0.8 nM
- Kd [2]: 0.05 nM

SMILES: CCCC[C@@H]1NC(=O)[C@@H]2CC[C@@H](C2)NC(=O)[C@H]([C@@H](C)c2c[nH]c3c(OC)cccc23)NC(=O)CN(C)C(=O)[C@H](Cc2ccc(OCC(=O)O)cc2)NC(=O)[C@H](Cc2ccc(S(N)(=O)=O)cc2)NC(=O)[C@](C)(CO)NC(=O)[C@H](Cc2c[nH]c3c(C#N)cccc23)NC(=O)[C@H](Cc2ccc(OCC(=O)O)cc2)NC(=O)[C@H](CC(N)=O)NC(=O)[C@H]2C[C@H](O)CN2C(=O)[C@H](Cc2c[nH]c3ccccc23)NC(=O)[C@@H]2CC[C@@H](O)CN2C(=O)[C@H](Cc2ccncc2)NC1=O [SEQ ID NO. 135] (cyclo([4Pal][Pip(5R-OH)]W[dHyp]NY(Carboxymethyl)[Trp(7-CN)][αMeS][Phe(4-SO2NH2)]Y(Carboxymethyl)[Sar][Trp(βS-Me,7-OMe)][X1][Nle]))
- IC50 [1]: 0.4 nM
- Kd [2]: 0.07 nM

SMILES: CCCC[C@@H]1NC(=O)[C@@H]2CC[C@@H](C2)NC(=O)[C@H]([C@@H](C)c2c[nH]c3c(OC)cccc23)NC(=O)CN(C)C(=O)[C@H](Cc2ccc(O)cc2)NC(=O)[C@H](Cc2ccc(C(=O)O)cc2)NC(=O)[C@](C)(CO)NC(=O)[C@H](Cc2c[nH]c3c(Cl)cccc23)NC(=O)[C@H](Cc2ccc(CS(=O)(=O)O)cc2)NC(=O)[C@H](CC(N)=O)NC(=O)[C@H](CCC(=O)O)N(C)C(=O)[C@H](Cc2c[nH]c3ccccc23)NC(=O)[C@@H]2CNCCN2C(=O)[C@H](Cc2ccncc2)NC1=O [SEQ ID NO. 171] (cyclo([4Pal][Pip(4-aza)]W[NMeE]N[Phe(4-CH2SO3H)][Trp(7-Cl)][αMeS][Phe(4-COOH)]Y[Sar][Trp(βS-Me,7-OMe)][X1][Nle]))
- IC50 [1]: 0.9 nM
- Kd [2]: 0.19 nM

SMILES: CCCC[C@@H]1NC(=O)[C@@H]2CC[C@@H](C2)NC(=O)[C@H]([C@@H](C)c2c[nH]c3c(OC)cccc23)NC(=O)CN(C)C(=O)[C@H](Cc2ccc(OCC(=O)O)cc2)NC(=O)[C@H](Cc2ccc(S(N)(=O)=O)cc2)NC(=O)[C@](C)(CO)NC(=O)[C@H](Cc2c[nH]c3c(C#N)cccc23)NC(=O)[C@H](Cc2ccc(OCC(=O)O)cc2)NC(=O)[C@H](CC(N)=O)NC(=O)[C@H]2C[C@H](N)CN2C(=O)[C@H](Cc2c[nH]c3ccccc23)NC(=O)[C@@H]2CC[C@@H](O)CN2C(=O)[C@H](Cc2cncnc2)NC1=O [SEQ ID NO. 37] (cyclo(NY(Carboxymethyl)[Trp(7-CN)][αMeS][Phe(4-SO2NH2)]Y(Carboxymethyl)[Sar][Trp(βS-Me,7-OMe)][X1][Nle][Ala(pyrimidin-5-yl)][Pip(5R-OH)]W[dPro(4S-NH2)]))
- IC50 [1]: 0.6 nM
- Kd [2]: 0.09 nM
